Reference: publication PMC6278295, “Shape Effects of Peptide Amphiphile Micelles for Targeting Monocytes” (Molecules, 2018)

Columns and labels:
[1] = tested on: murine monocytes; test: Chemotaxis assay (transwell, migrated monocyte DNA); assay type: cell-based; details: 4 h, 8 µm pore transwell, Pico Green, n = 4
Method: To determine the chemoattractant properties of PAMs, 50,000 monocytes in 20 µL were suspended on a 24-well transwell plate with 8 µm pores. After 4 h, the number of cells that migrated to the bottom well containing 1 µM, 10 µM, 100 µM, 1000 µM PAMs, peptides, or PBS was quantified by lysing the cells via sonication, and measuring DNA using Quant-it Pico Green (Invitrogen, Carlsbad, CA, USA).

[2] = Circular dichroism secondary structure; assay type: physicochemical; details: CD, 100 µM, 190-240 nm, five scans averaged, Provencher & Glockner Method
Method: Circular dichroism (CD) spectroscopy was carried out using a Jasco J-815 spectropolarimeter (Easton, MD, USA). PAM solutions (100 µM) were analyzed in 0.2 mm path-length cuvettes. Measurements were made at 0.5 nm intervals from 190 nm to 240 nm with 1 s intervals and 1 nm bandwidth. Data from five scans were averaged to create the CD spectra, and the secondary structures were quantified using the Provencher & Glockner Method.

Sequence | Amount of migrated monocyte DNA at 1000 µM [1] [ng/mL] | Secondary Structure, Alpha Helix [2] [%] | Secondary Structure, Beta Sheet [2] [%] | Secondary Structure, Random Coil [2] [%]
YNFTNRKISVQRLASYRRITSSK [MCP-1 Peptide, MCP-1 peptide (residues 13–35) modified with a cysteine at the N-terminus] | 78.98 ± 0.8 | 9.2 | 36.2 | 54.5
YNSLVFRIRNSTQRKYRASIST [Scrambled MCP-1 Peptide, scrambled version of the MCP-1 peptide designed to mimic its secondary structure] |  | 8.6 | 43.9 | 47.5
